{"source": "the supplement of paper PMC10307832", "assay_in_all_cases": "relative viability (nuclei count vs DMSO), 5 days (fraction); higher = more cells survive", "key": {"Palbociclib + Crizotinib": {"compound": "CC(=O)c1c(C)c2cnc(Nc3ccc(N4CCNCC4)cn3)nc2n(C2CCCC2)c1=O [Palbociclib] + C[C@@H](Oc1cc(-c2cnn(C3CCNCC3)c2)cnc1N)c1c(Cl)ccc(F)c1Cl [Crizotinib] (partner 1 µM)", "method_in_brief": "(§1)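 Relative viability divides the nuclei count in treated wells by that in vehicle wells. Lung cancer cell lines were seeded in 1536-well plates, dosed by pin tool the next day, and fixed and stained after 5 days in one step with final 0.05% Triton X-100, 1% formaldehyde and 1 ug/ml Hoechst. Dosing was a single drug or a fixed anchor-drug dose plus five library-drug doses (not always all listed) in √10 steps, and values are medians of duplicate plates imaged at 4×.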"}, "Palbociclib + Linsitinib": {"compound": "CC(=O)c1c(C)c2cnc(Nc3ccc(N4CCNCC4)cn3)nc2n(C2CCCC2)c1=O [Palbociclib] + C[C@]1(O)C[C@@H](c2nc(-c3ccc4ccc(-c5ccccc5)nc4c3)c3c(N)nccn32)C1 [Linsitinib] (partner 1 µM)", "method_in_brief": "as §1"}, "Palbociclib + Tozasertib": {"compound": "CC(=O)c1c(C)c2cnc(Nc3ccc(N4CCNCC4)cn3)nc2n(C2CCCC2)c1=O [Palbociclib] + Cc1cc(Nc2cc(N3CCN(C)CC3)nc(Sc3ccc(NC(=O)C4CC4)cc3)n2)n[nH]1 [Tozasertib] (partner 0.1 µM)", "method_in_brief": "as §1"}, "Palbociclib + Dasatinib": {"compound": "CC(=O)c1c(C)c2cnc(Nc3ccc(N4CCNCC4)cn3)nc2n(C2CCCC2)c1=O [Palbociclib] + Cc1nc(Nc2ncc(C(=O)Nc3c(C)cccc3Cl)s2)cc(N2CCN(CCO)CC2)n1 [Dasatinib] (partner 0.075 µM)", "method_in_brief": "as §1"}}}
{"cell line": "COR-L23", "values": [{"measurement": "relative viability", "setting": "Palbociclib + Crizotinib; first compound 0.01 µM", "value": 0.707}, {"measurement": "relative viability", "setting": "Palbociclib + Crizotinib; first compound 0.03162 µM", "value": 0.551}, {"measurement": "relative viability", "setting": "Palbociclib + Crizotinib; first compound 0.1 µM", "value": 0.427}, {"measurement": "relative viability", "setting": "Palbociclib + Crizotinib; first compound 0.3162 µM", "value": 0.32}, {"measurement": "relative viability", "setting": "Palbociclib + Crizotinib; first compound 1 µM", "value": 0.287}, {"measurement": "relative viability", "setting": "Palbociclib + Linsitinib; first compound 0.01 µM", "value": 0.9}, {"measurement": "relative viability", "setting": "Palbociclib + Linsitinib; first compound 0.03162 µM", "value": 0.844}, {"measurement": "relative viability", "setting": "Palbociclib + Linsitinib; first compound 0.1 µM", "value": 0.637}, {"measurement": "relative viability", "setting": "Palbociclib + Linsitinib; first compound 0.3162 µM", "value": 0.552}, {"measurement": "relative viability", "setting": "Palbociclib + Linsitinib; first compound 1 µM", "value": 0.344}, {"measurement": "relative viability", "setting": "Palbociclib + Tozasertib; first compound 0.01 µM", "value": 0.197}, {"measurement": "relative viability", "setting": "Palbociclib + Tozasertib; first compound 0.03162 µM", "value": 0.146}, {"measurement": "relative viability", "setting": "Palbociclib + Tozasertib; first compound 0.1 µM", "value": 0.16}, {"measurement": "relative viability", "setting": "Palbociclib + Tozasertib; first compound 0.3162 µM", "value": 0.157}, {"measurement": "relative viability", "setting": "Palbociclib + Tozasertib; first compound 1 µM", "value": 0.124}, {"measurement": "relative viability", "setting": "Palbociclib + Dasatinib; first compound 0.01 µM", "value": 0.575}, {"measurement": "relative viability", "setting": "Palbociclib + Dasatinib; first compound 0.03162 µM", "value": 0.431}, {"measurement": "relative viability", "setting": "Palbociclib + Dasatinib; first compound 0.1 µM", "value": 0.241}, {"measurement": "relative viability", "setting": "Palbociclib + Dasatinib; first compound 0.3162 µM", "value": 0.334}, {"measurement": "relative viability", "setting": "Palbociclib + Dasatinib; first compound 1 µM", "value": 0.2}]}
{"cell line": "NCI-H838", "values": [{"measurement": "relative viability", "setting": "Palbociclib + Crizotinib; first compound 0.01 µM", "value": 0.795}, {"measurement": "relative viability", "setting": "Palbociclib + Crizotinib; first compound 0.03162 µM", "value": 0.808}, {"measurement": "relative viability", "setting": "Palbociclib + Crizotinib; first compound 0.1 µM", "value": 0.645}, {"measurement": "relative viability", "setting": "Palbociclib + Crizotinib; first compound 0.3162 µM", "value": 0.551}, {"measurement": "relative viability", "setting": "Palbociclib + Crizotinib; first compound 1 µM", "value": 0.413}, {"measurement": "relative viability", "setting": "Palbociclib + Linsitinib; first compound 0.01 µM", "value": 1.07}, {"measurement": "relative viability", "setting": "Palbociclib + Linsitinib; first compound 0.03162 µM", "value": 0.96}, {"measurement": "relative viability", "setting": "Palbociclib + Linsitinib; first compound 0.1 µM", "value": 0.708}, {"measurement": "relative viability", "setting": "Palbociclib + Linsitinib; first compound 0.3162 µM", "value": 0.82}, {"measurement": "relative viability", "setting": "Palbociclib + Linsitinib; first compound 1 µM", "value": 0.494}, {"measurement": "relative viability", "setting": "Palbociclib + Tozasertib; first compound 0.01 µM", "value": 0.272}, {"measurement": "relative viability", "setting": "Palbociclib + Tozasertib; first compound 0.03162 µM", "value": 0.248}, {"measurement": "relative viability", "setting": "Palbociclib + Tozasertib; first compound 0.1 µM", "value": 0.213}, {"measurement": "relative viability", "setting": "Palbociclib + Tozasertib; first compound 0.3162 µM", "value": 0.194}, {"measurement": "relative viability", "setting": "Palbociclib + Tozasertib; first compound 1 µM", "value": 0.204}, {"measurement": "relative viability", "setting": "Palbociclib + Dasatinib; first compound 0.01 µM", "value": 0.278}, {"measurement": "relative viability", "setting": "Palbociclib + Dasatinib; first compound 0.03162 µM", "value": 0.318}, {"measurement": "relative viability", "setting": "Palbociclib + Dasatinib; first compound 0.1 µM", "value": 0.213}, {"measurement": "relative viability", "setting": "Palbociclib + Dasatinib; first compound 0.3162 µM", "value": 0.22}, {"measurement": "relative viability", "setting": "Palbociclib + Dasatinib; first compound 1 µM", "value": 0.213}]}
{"cell line": "RERF-LC-KJ", "values": [{"measurement": "relative viability", "setting": "Palbociclib + Crizotinib; first compound 0.01 µM", "value": 0.909}, {"measurement": "relative viability", "setting": "Palbociclib + Crizotinib; first compound 0.03162 µM", "value": 0.82}, {"measurement": "relative viability", "setting": "Palbociclib + Crizotinib; first compound 0.1 µM", "value": 0.82}, {"measurement": "relative viability", "setting": "Palbociclib + Crizotinib; first compound 0.3162 µM", "value": 0.88}, {"measurement": "relative viability", "setting": "Palbociclib + Crizotinib; first compound 1 µM", "value": 0.87}, {"measurement": "relative viability", "setting": "Palbociclib + Linsitinib; first compound 0.01 µM", "value": 0.954}, {"measurement": "relative viability", "setting": "Palbociclib + Linsitinib; first compound 0.03162 µM", "value": 0.887}, {"measurement": "relative viability", "setting": "Palbociclib + Linsitinib; first compound 0.1 µM", "value": 0.919}, {"measurement": "relative viability", "setting": "Palbociclib + Linsitinib; first compound 0.3162 µM", "value": 1.04}, {"measurement": "relative viability", "setting": "Palbociclib + Linsitinib; first compound 1 µM", "value": 0.958}, {"measurement": "relative viability", "setting": "Palbociclib + Tozasertib; first compound 0.01 µM", "value": 0.467}, {"measurement": "relative viability", "setting": "Palbociclib + Tozasertib; first compound 0.03162 µM", "value": 0.446}, {"measurement": "relative viability", "setting": "Palbociclib + Tozasertib; first compound 0.1 µM", "value": 0.392}, {"measurement": "relative viability", "setting": "Palbociclib + Tozasertib; first compound 0.3162 µM", "value": 0.536}, {"measurement": "relative viability", "setting": "Palbociclib + Tozasertib; first compound 1 µM", "value": 0.534}, {"measurement": "relative viability", "setting": "Palbociclib + Dasatinib; first compound 0.01 µM", "value": 0.832}, {"measurement": "relative viability", "setting": "Palbociclib + Dasatinib; first compound 0.03162 µM", "value": 0.802}, {"measurement": "relative viability", "setting": "Palbociclib + Dasatinib; first compound 0.1 µM", "value": 0.717}, {"measurement": "relative viability", "setting": "Palbociclib + Dasatinib; first compound 0.3162 µM", "value": 0.852}, {"measurement": "relative viability", "setting": "Palbociclib + Dasatinib; first compound 1 µM", "value": 0.922}]}
{"cell line": "NCI-H1299", "values": [{"measurement": "relative viability", "setting": "Palbociclib + Crizotinib; first compound 0.01 µM", "value": 0.938}, {"measurement": "relative viability", "setting": "Palbociclib + Crizotinib; first compound 0.03162 µM", "value": 0.895}, {"measurement": "relative viability", "setting": "Palbociclib + Crizotinib; first compound 0.1 µM", "value": 0.86}, {"measurement": "relative viability", "setting": "Palbociclib + Crizotinib; first compound 0.3162 µM", "value": 0.7}, {"measurement": "relative viability", "setting": "Palbociclib + Crizotinib; first compound 1 µM", "value": 0.631}, {"measurement": "relative viability", "setting": "Palbociclib + Linsitinib; first compound 0.01 µM", "value": 0.961}, {"measurement": "relative viability", "setting": "Palbociclib + Linsitinib; first compound 0.03162 µM", "value": 0.983}, {"measurement": "relative viability", "setting": "Palbociclib + Linsitinib; first compound 0.1 µM", "value": 0.908}, {"measurement": "relative viability", "setting": "Palbociclib + Linsitinib; first compound 0.3162 µM", "value": 0.866}, {"measurement": "relative viability", "setting": "Palbociclib + Linsitinib; first compound 1 µM", "value": 0.685}]}
{"cell line": "Calu-6", "values": [{"measurement": "relative viability", "setting": "Palbociclib + Crizotinib; first compound 0.01 µM", "value": 0.867}, {"measurement": "relative viability", "setting": "Palbociclib + Crizotinib; first compound 0.03162 µM", "value": 0.68}, {"measurement": "relative viability", "setting": "Palbociclib + Crizotinib; first compound 0.1 µM", "value": 0.662}, {"measurement": "relative viability", "setting": "Palbociclib + Crizotinib; first compound 0.3162 µM", "value": 0.551}, {"measurement": "relative viability", "setting": "Palbociclib + Crizotinib; first compound 1 µM", "value": 0.451}, {"measurement": "relative viability", "setting": "Palbociclib + Linsitinib; first compound 0.01 µM", "value": 0.982}, {"measurement": "relative viability", "setting": "Palbociclib + Linsitinib; first compound 0.03162 µM", "value": 0.921}, {"measurement": "relative viability", "setting": "Palbociclib + Linsitinib; first compound 0.1 µM", "value": 0.784}, {"measurement": "relative viability", "setting": "Palbociclib + Linsitinib; first compound 0.3162 µM", "value": 0.746}, {"measurement": "relative viability", "setting": "Palbociclib + Linsitinib; first compound 1 µM", "value": 0.578}]}
